Reference: patent US20180273503A1, “NOVEL ANGIOTENSIN CONVERTING ENZYME INHIBITOR” (RIKEN, priority 2015, published 2018)

Target: T1, angiotensin converting enzyme (ACE) (Homo sapiens, UniProt P12821)
T1 construct: purchased Dojindo Laboratories A502
Experiment: ACE inhibitory activity assay (ACE Kit-WST, A502, Dojindo Laboratories)
Format: biochemical
Settings: for IC50: 3HB-GGG substrate, absorbance 450 nm, N.D. = ACE inhibitory activity was not detected in the test, read-out: IC50 concerning ACE activity
Source text: ACE inhibitory activity can be quantitatively evaluated with the use of, for example, a commercially available kit for ACE inhibitory activity assay. […] For example, ACE inhibitory activity of a target sample (e.g., a compound) can be evaluated with the use of a commercially available kit for ACE inhibitory activity assay (ACE Kit-WST, A502, Dojindo Laboratories) in the manner described below. In principle, such kit enzymatically detects 3-hydroxybutyric acid (3HB) cleaved from 3-hydroxybutyryl-glycyl-glycyl-glycine (3HB-GGG) by ACE activity. In accordance with the instructions of the kit, a sample solution containing a test compound at a given concentration is prepared in a reaction vessel, and a control solution is prepared with the addition of the same volume of water instead of the sample solution in another reaction vessel. An enzyme reaction solution is added to each reaction vessel, and the reaction is then allowed to proceed, respectively. As a blank sample, a solution prepared with the addition of the same volume of water instead of the enzyme solution is subjected to the same treatment. The absorbance (450 nm) of the chromogenic indicator used in the enzymatic method generated together with 3HB cleaved from 3HB-GGG by ACE activity is measured. On the basis of the values measured for the sample, the control sample, and the blank sample, ACE inhibitory activity of each sample is determined using the formula shown below. Alternatively, ACE inhibitory activity of the target sample can be evaluated in the manner described below. A substrate peptide that is a mimic of a C-terminal region of angiotensin I (e.g., hippuryl-histidyl-leucine (HHL)) and a sample are mixed with each other in an appropriate buffer solution. ACE is added to the resulting mixture and an enzymatic reaction is performed under appropriate conditions (e.g., 37° C. and pH 8.3) for a given period of time. After the enzymatic reaction is terminated, a product generated from the substrate peptide (e.g., hippuric acid in the case of HHL) is quantitatively measured via analytical means, such as absorbance measurement, immunoanalysis such as ELISA or RIA, or chromatography analysis such as HPLC or LC-MS. A sample-free control and an ACE-free blank are subjected to the same experiment. On the basis of the values measured for the sample, the control sample, and the blank sample, ACE inhibitory activity of each sample is determined using the formula shown below. […]
In principle, such kit enzymatically detects 3-hydroxybutyric acid (3HB) cleaved from 3-hydroxybutyryl-glycyl-glycyl-glycine (3HB-GGG) by ACE activity. […] The absorbance (450 nm) of the chromogenic indicator used in the enzymatic method generated together with 3HB cleaved from 3HB-GGG by ACE activity was measured.

T1 sequence (P12821 30-1306, species assumed): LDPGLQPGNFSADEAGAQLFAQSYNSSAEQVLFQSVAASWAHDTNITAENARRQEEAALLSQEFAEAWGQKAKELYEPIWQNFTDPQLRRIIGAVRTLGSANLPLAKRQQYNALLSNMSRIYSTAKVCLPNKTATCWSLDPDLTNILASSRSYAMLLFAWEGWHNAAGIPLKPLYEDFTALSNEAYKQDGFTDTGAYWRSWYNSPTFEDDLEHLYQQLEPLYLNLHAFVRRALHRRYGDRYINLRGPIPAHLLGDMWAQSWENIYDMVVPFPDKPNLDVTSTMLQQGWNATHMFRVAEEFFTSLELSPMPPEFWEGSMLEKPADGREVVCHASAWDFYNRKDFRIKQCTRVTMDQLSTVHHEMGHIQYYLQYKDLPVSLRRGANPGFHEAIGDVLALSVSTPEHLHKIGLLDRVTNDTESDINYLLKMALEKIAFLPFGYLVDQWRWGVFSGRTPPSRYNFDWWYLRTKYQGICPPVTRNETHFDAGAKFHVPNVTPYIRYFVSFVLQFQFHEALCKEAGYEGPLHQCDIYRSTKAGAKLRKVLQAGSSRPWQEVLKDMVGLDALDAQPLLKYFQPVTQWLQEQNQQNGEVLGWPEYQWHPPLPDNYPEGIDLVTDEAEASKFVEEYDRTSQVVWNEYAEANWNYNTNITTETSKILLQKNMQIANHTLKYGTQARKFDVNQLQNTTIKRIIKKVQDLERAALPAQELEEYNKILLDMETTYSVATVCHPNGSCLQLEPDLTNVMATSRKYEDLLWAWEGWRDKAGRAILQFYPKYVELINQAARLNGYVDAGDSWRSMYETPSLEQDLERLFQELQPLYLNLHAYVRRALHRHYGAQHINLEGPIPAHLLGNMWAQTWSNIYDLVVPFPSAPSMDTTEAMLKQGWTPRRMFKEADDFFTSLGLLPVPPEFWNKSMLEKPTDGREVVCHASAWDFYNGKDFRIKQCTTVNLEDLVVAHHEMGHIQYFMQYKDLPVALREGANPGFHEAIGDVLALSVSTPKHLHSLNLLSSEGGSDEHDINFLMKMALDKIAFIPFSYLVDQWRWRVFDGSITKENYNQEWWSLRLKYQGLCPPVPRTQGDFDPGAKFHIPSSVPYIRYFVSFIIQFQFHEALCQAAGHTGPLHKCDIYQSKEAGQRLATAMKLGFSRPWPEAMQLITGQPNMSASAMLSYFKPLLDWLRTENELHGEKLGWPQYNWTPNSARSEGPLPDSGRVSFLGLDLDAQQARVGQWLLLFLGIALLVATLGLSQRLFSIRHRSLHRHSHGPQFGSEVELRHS

Compound | IC50 [µM] | concentration at which ACE inhibitory activity is exerted (from the dose-response data)
N=C(N)NCCC[C@H](NC(=O)C1CSSC1)C(=O)O [Asparaptine, asparaptine] | 113 | exceeding 1 μM
O=C(O)CCC(=O)N1CCC[C@H]1C(=O)O [N-Succinyl-L-proline, N-succinyl-L-proline] | 14.5 ± 5.3 | 
N[C@@H](CCN[C@@H](CCN1CC[C@H]1C(=O)O)C(=O)O)C(=O)O [Nicotianamine, nicotianamine] | 18.7 ± 0.54 | 
